This is an account of results in paper PMC11440591 (Journal of Medicinal Chemistry, 2024).

Data set [1] is described as follows: in vitro. To be noted: chlorocebus sabaeus.
For data set [2], the system named is EBOV-GP-pseudotyped virus (pEBOV).
In data set [3] the test system is wild-type Zaire EBOV Mayinga 1976 strain (EBOV May).
For data set [4], the system named is VSV-G-pseudotype virus (pVSV-G). In words: microbe, parasite or virus in culture. The class given is cell-based. Conditions: Vesicular stomatitis virus, read-out: %inh@10µM (pVSV-G).
Data set [5] has as its system EBOV-GP-pseudotyped virus (pEBOV). Description: microbe, parasite or virus in culture. Conditions: Vesicular stomatitis virus, Vero C1008, 24 h, read-out: EC50 (pEBOV).
The subject of data set [6] is wild-type Zaire EBOV Mayinga 1976 strain (EBOV May). In words: microbe, parasite or virus in culture. Conditions: Zaire ebolavirus, Vero C1008, 72 h, read-out: EC50 (EBOV May).

As usually defined, the EC50 is the midpoint of the concentration-response curve. As to `O=C(Nc1ccc(Cl)cc1)c1ccc(-c2ccccc2OC2CCNCC2)s1` [compound 47, N-(4-Chlorophenyl)-5-(2-(piperidin-4-yloxy)phenyl)thiophene-2-carboxamide], in data set [1], the CC50 at 24 h was determined as 27.9 µM. Also, the entries for the “SI (CC50/EC50)” value in data set [2] and in data set [3] were 3.32 and 18, respectively. Moreover, in data set [4], the inhibition at 10 µM is -117%. For the same compound, the 50% effective concentration (EC50) in data set [5] came out at 8.4 µM; in data set [6], 1.55 µM.
Turning to `O=C(Nc1cccc(Cl)c1)c1ccc(-c2ccccc2OC2CCNCC2)s1` [compound 48, N-(3-Chlorophenyl)-5-(2-(piperidin-4-yloxy)phenyl)thiophene-2-carboxamide], the CC50 at 24 h in data set [1] was determined as 22.3 µM. Also, the “SI (CC50/EC50)” value in data set [2] is 4.8; in data set [3], 17.1. For the same compound, the concentration giving a half-maximal response (EC50) in data set [5] was 4.65 µM; in data set [6], 1.3 µM.
In data set [1], `O=C(NCCc1ccccc1)c1ccc(-c2ccccc2OC2CCNCC2)s1` [compound 49, N-Phenethyl-5-(2-(piperidin-4-yloxy)phenyl)thiophene-2-carboxamide] registered a CC50 at 24 h of 29.2 µM. Also, the “SI (CC50/EC50)” value in data set [2] came to 5.6; in data set [3] it was 36.9. Moreover, the inhibition at 10 µM in data set [4] is -160%. Besides, the concentration for a half-maximal effect (EC50) is 5.2 µM in data set [5] and 0.79 µM in data set [6].
Compound `O=C(Nc1ccc(N2CCOCC2)cc1)c1ccc(-c2ccccc2OC2CCNCC2)s1` [compound 50, N-(4-Morpholinophenyl)-5-(2-(piperidin-4-yloxy)phenyl)thiophene-2-carboxamide] gave a CC50 at 24 h in data set [1] of 22 µM. Also, the “SI (CC50/EC50)” value was determined as 2.26 in data set [2] and 2.8 in data set [3]. Besides, in data set [4], the inhibition at 10 µM is -31%. Further, the EC50 in data set [5] worked out at 9.7 µM; in data set [6] it was 7.74 µM.
For `O=C(NCCC1CCN(Cc2ccccc2)CC1)c1ccc(-c2ccccc2OC2CCNCC2)s1` [compound 51, N-(2-(1-Benzylpiperidin-4-yl)ethyl)-5-(2-(piperidin-4-yloxy)phenyl)thiophene-2-carboxamide], the CC50 at 24 h in data set [1] is 19.5 µM. The “SI (CC50/EC50)” value in data set [2] amounted to 2; in data set [3] it was 6.6. Moreover, the inhibition at 10 µM in data set [4] is -148%. For the same compound, the concentration for a half-maximal effect (EC50) was 9.3 µM in data set [5] and 2.96 µM in data set [6].
As to `O=C(Nc1ccc(Cl)cc1)c1ccc(-c2cccc(OC3CCNCC3)c2)s1` [compound 54, N-(4-Chlorophenyl)-5-(3-(piperidin-4-yloxy)phenyl)thiophene-2-carboxamide], in data set [1], the CC50 at 24 h stood at 10 µM. Further, the “SI (CC50/EC50)” value is 2.8 in data set [2] and 8.9 in data set [3]. In addition, the inhibition at 10 µM in data set [4] was 30%. Besides, the figures for the EC50 in data set [5] and in data set [6] were 3.53 µM and 1.12 µM, respectively.
`O=C(NCCc1ccccc1)c1ccc(-c2cccc(OC3CCNCC3)c2)s1` [compound 56, N-Phenethyl-5-(3-(piperidin-4-yloxy)phenyl)thiophene-2-carboxamide] registered a CC50 at 24 h in data set [1] of 10 µM. In addition, the “SI (CC50/EC50)” value is listed as 1.98 in data set [2] and 2.0 in data set [3]. Further, in data set [4], the inhibition at 10 µM is -182%. Also, the EC50 in data set [5] worked out at 5.03 µM; in data set [6], 4.93 µM.
In turn, `O=C(Nc1ccc(Cl)cc1)c1ccc(-c2ccc(OC3CCNCC3)cc2)s1` [compound 58, N-(4-Chlorophenyl)-5-(4-(piperidin-4-yloxy)phenyl)thiophene-2-carboxamide] showed a CC50 at 24 h in data set [1] of 10 µM. Besides, the “SI (CC50/EC50)” value in data set [2] was 1.39; in data set [3], 4.13. Also, in data set [4], the inhibition at 10 µM was -12%. The EC50 in data set [5] was determined as 7.18 µM; in data set [6], 2.42 µM.
`O=C(Nc1cccc(Cl)c1)c1ccc(-c2ccc(OC3CCNCC3)cc2)s1` [compound 59, N-(3-Chlorophenyl)-5-(4-(piperidin-4-yloxy)phenyl)thiophene-2-carboxamide]: the CC50 at 24 h in data set [1] is 26 µM. The “SI (CC50/EC50)” value is 3.8 in data set [2] and 21.8 in data set [3]. In addition, the inhibition at 10 µM in data set [4] worked out at 5%. The EC50 was found to be 7.91 µM in data set [5] and 1.19 µM in data set [6].
